Values belong to the compound of their own block, whether it stands above or below them.
Tests used:
[1] = Biodistribution of [^18F]-FCPHA in rats (organs excised, gamma counter); format: in vivo, Sprague-Dawley rats; conditions: rat
Experimental: Male Sprague-Dawley rats weighing approximately 300-350 grams, were injected without anesthesia with 40 µCi of [^18F]-FCPHA in a total volume of 200 µl. The radiolabeled FA was injected into the tail vein and the rats subsequently sacrificed at 5 minutes and 60 minutes post-injection. The organs were excised and counted in a gamma counter. Accumulation of the FA in various organs in % DPG (dose per gram) is detailed in Table 1.
Bone accumulation of the fluorinated FA measured de-fluorination of the compound and its subsequent accumulation. To confirm imaging resolution, the following ratios were determined at 5 and 60 minutes post-injection (Table 2).

[2] = Heart imaging in pig after intravenous [^18F]FCPHA; format: in vivo
Experimental: (§1) In FIG. 6, the images are a comparison of [^13N]ammonia (right) and [^18F]FCPHA (left) at 2-8 minutes in a pig.
(§2) The biodistribution of [^18F]-FCPHA was also studied in monkeys.

[3] = PET heart imaging in monkey after intravenous [^18F]-FCPHA; format: in vivo
Experimental: as §1, §2

[4] = Biodistribution of [^18F]-FCPHA in rats (organs excised, gamma counter); format: in vivo, Sprague-Dawley rats
[5] = in vivo; cited from earlier work
[6] = Biodistribution of isomers and racemic mixture of labeled 3-methylheptadecanoic acid in rats; format: in vivo; conditions: rat
Experimental: The following data compare the biodistribution of 1-[^11C]-3(S)-methylheptadecanoic acid (the ‘S’ isomer) and I-[^11C]-3(R)-methylheptadecanoic acid (the ‘R’ isomer). Also compared is the racemic mixture, 1-[^14C]-3(R,S)-methylheptadecanoic acid, labeled with ^14C. […] Biodistribution was performed in six rats for each compound and time point. The 5-minute distribution data are contained in Table 5, while the 30-minute data are contained in Table 6. These unexpected results imply that during β-oxidation, enoyl-CoA hydratase is stereo-specific and only recognizes the ‘S’ isomer. Further, stereoisomeric purity is important for targeting the MFA to heart tissue.

[7] = cited from earlier work
[8] = normal myocardium, biexponential clearance

SMILES: CC(C)(CCCCCCCCCCCCc1ccc(I)cc1)CC(=O)O [DMIPP]
Myocardial clearance [5]: 6 to 7 h

SMILES: O=C(O)CCCCCCCCCCCCCCc1ccc(I)cc1 [IPPA, 15-(p-iodophenyl)pentadecanoic acid]
Blood clearance t½ (elimination) ([7]; in vivo): 5 min
Myocardial clearance, fast component t½ (flow) [7, 8]: 3.5 min
Myocardial clearance, slow component t½ (metabolism) [7, 8]: 130 min

SMILES: CC(CCCCCCCCCCCCc1ccc(I)cc1)CC(=O)O (racemic) [BMIPP, 15-(p-iodophenyl)-3-(R,S)-methyl-pentadecanoic acid]
Myocardial retention [5]: 30 to 45 min

Further lines, with some results ahead:

Accumulation in Adrenal ([1]; 5 min post-injection): 0.22 ± 0.061 % DPG
Accumulation in Blood ([1]; 5 min post-injection): 0.064 ± 0.008 % DPG
Accumulation in Bone ([1]; 5 min post-injection): 0.16 ± 0.03 % DPG
Accumulation in Brain ([1]; 5 min post-injection): 0.06 ± 0.01 % DPG
Accumulation in Gastrointestinal Tract ([1]; 5 min post-injection): 0.19 ± 0.040 % DPG
Accumulation in Kidney ([1]; 5 min post-injection): 0.41 ± 0.097 % DPG
Accumulation in Liver ([1]; 5 min post-injection): 1.34 ± 0.26 % DPG
Accumulation in Lung ([1]; 5 min post-injection): 0.47 ± 0.12 % DPG
Accumulation in Muscle ([1]; 5 min post-injection): 0.25 ± 0.009 % DPG
Accumulation in Spleen ([1]; 5 min post-injection): 0.55 ± 0.30 % DPG
Accumulation in Stomach ([1]; 5 min post-injection): 0.12 ± 0.067 % DPG
Accumulation in Testes ([1]; 5 min post-injection): 0.020 ± 0.003 % DPG
Accumulation in Heart ([1]; 5 min post-injection, tail vein): 1.55 ± 0.66 % DPG
Accumulation in Adrenal ([1]; 60 min post-injection): 0.30 ± 0.16 5 DPG
Accumulation in Blood ([1]; 60 min post-injection): 0.080 ± 0.019 5 DPG
Accumulation in Bone ([1]; 60 min post-injection): 0.70 ± 0.39 5 DPG
Accumulation in Brain ([1]; 60 min post-injection): 0.05 ± 0.02 5 DPG
Accumulation in Gastrointestinal Tract ([1]; 60 min post-injection): 0.24 ± 0.039 5 DPG
Accumulation in Heart ([1]; 60 min post-injection): 1.43 ± 0.14 5 DPG
Accumulation in Kidney ([1]; 60 min post-injection): 0.34 ± 0.08 5 DPG
Accumulation in Liver ([1]; 60 min post-injection): 0.87 ± 0.15 5 DPG
Accumulation in Lung ([1]; 60 min post-injection): 0.33 ± 0.16 5 DPG
Accumulation in Muscle ([1]; 60 min post-injection): 0.097 ± 0.075 5 DPG
Accumulation in Spleen ([1]; 60 min post-injection): 0.34 ± 0.085 5 DPG
Accumulation in Stomach ([1]; 60 min post-injection): 0.15 ± 0.038 5 DPG
Accumulation in Testes ([1]; 60 min post-injection): 0.011 ± 0.004 5 DPG
Heart-to-blood ratio ([1]; at 5 minutes post-injection): 25.8
Heart-to-lung ratio ([1]; at 5 minutes post-injection): 3.3
Heart-to-blood ratio ([1]; at 60 minutes post-injection): 20.4
Heart-to-lung ratio ([1]; at 60 minutes post-injection): 4.6
Myocardial activity retention in late images ([2]; late images at 60 minutes): high myocardial activity retention
Blood activity clearance ([2]; pig): fast clearance
Blood activity clearance ([3]; monkey): fast clearance
Subcellular distribution in the rat heart [4]: found in the mitochondria
SMILES: CCCCCCCCC([18F])CCCCC1CC1CC(=O)O (stereo not drawn) [[^18F]-FCPHA, [^18F]-9-fluoro-3,4-cyclopropyl-heptadecanoic acid]
Heart activity as a function of time ([2]; pig heart, after injection): initial spike of activity corresponding to blood flow followed by a plateau after 10 minutes
Heart activity as a function of time ([3]; monkey heart, after injection (FIG. 3)): initial spike of activity corresponding to blood flow followed by a plateau after 10 minutes
Myocardial trapping visualized by PET ([3]; monkey, sixty minutes after intravenous injection of 5 mCi): myocardial trapping in both left and right ventricles

Biodistribution, Blood ([6]; 5 minutes post-injection): 0.30 ± 0.04 % DPE
Biodistribution, Heart ([6]; 5 minutes post-injection): 1.40 ± 0.23 % DPE
Biodistribution, Left Ventricle ([6]; 5 minutes post-injection): 1.50 ± 0.50 % DPE
Biodistribution, Right Ventricle ([6]; 5 minutes post-injection): 0.94 ± 0.46 % DPE
Heart-to-blood ([6]; 5 minutes post-injection): 4.66
Left ventricle-to-blood ([6]; 5 minutes post-injection): 5.00
Right ventricle-to-blood ([6]; 5 minutes post-injection): 3.13
Biodistribution, Blood ([6]; 30 minutes post-injection): 0.23 ± 0.03 % DPE
Biodistribution, Heart ([6]; 30 minutes post-injection): 1.07 ± 0.16 % DPE
Biodistribution, Left Ventricle ([6]; 30 minutes post-injection): 1.33 ± 0.25 % DPE
Biodistribution, Right Ventricle ([6]; 30 minutes post-injection): 0.93 ± 0.35 % DPE
Heart-to-blood ([6]; 30 minutes post-injection): 5.95
Left ventricle-to-blood ([6]; 30 minutes post-injection): 5.78
Right ventricle-to-blood ([6]; 30 minutes post-injection): 4.00
SMILES: CCCCCCCCCCCCCC[C@@H](C)C[11C](=O)O (single isomer, unassigned; isomer i) [R-isomer]

Biodistribution, Blood ([6]; 5 minutes post-injection): 0.18 ± 0.01 % DPE
Biodistribution, Heart ([6]; 5 minutes post-injection): 3.44 ± 0.54 % DPE
Biodistribution, Left Ventricle ([6]; 5 minutes post-injection): 4.05 ± 0.77 % DPE
Biodistribution, Right Ventricle ([6]; 5 minutes post-injection): 3.40 ± 0.82 % DPE
Heart-to-blood ([6]; 5 minutes post-injection): 19.00
Left ventricle-to-blood ([6]; 5 minutes post-injection): 22.00
Right ventricle-to-blood ([6]; 5 minutes post-injection): 18.88
Biodistribution, Blood ([6]; 30 minutes post-injection): 0.21 ± 0.04 % DPE
Biodistribution, Heart ([6]; 30 minutes post-injection): 3.08 ± 0.30 % DPE
Biodistribution, Left Ventricle ([6]; 30 minutes post-injection): 3.81 ± 0.37 % DPE
Biodistribution, Right Ventricle ([6]; 30 minutes post-injection): 2.82 ± 0.46 % DPE
Heart-to-blood ([6]; 30 minutes post-injection): 14.66
Left ventricle-to-blood ([6]; 30 minutes post-injection): 18.14
Right ventricle-to-blood ([6]; 30 minutes post-injection): 18.88
SMILES: CCCCCCCCCCCCCC[C@H](C)C[11C](=O)O (single isomer, unassigned; isomer 1) [S-isomer]

Biodistribution, Blood ([6]; 5 minutes post-injection): 0.23 ± 0.02 % DPE
Biodistribution, Heart ([6]; 5 minutes post-injection): 2.20 ± 0.95 % DPE
Biodistribution, Left Ventricle ([6]; 5 minutes post-injection): 2.87 ± 1.01 % DPE
Biodistribution, Right Ventricle ([6]; 5 minutes post-injection): 2.05 ± 0.54 % DPE
Heart-to-blood ([6]; 5 minutes post-injection): 9.56
Left ventricle-to-blood ([6]; 5 minutes post-injection): 12.48
Right ventricle-to-blood ([6]; 5 minutes post-injection): 8.90
Biodistribution, Blood ([6]; 30 minutes post-injection): 0.20 ± 0.02 % DPE
Biodistribution, Heart ([6]; 30 minutes post-injection): 2.10 ± 0.41 % DPE
Biodistribution, Left Ventricle ([6]; 30 minutes post-injection): 2.81 ± 0.35 % DPE
Biodistribution, Right Ventricle ([6]; 30 minutes post-injection): 2.10 ± 0.41 % DPE
Heart-to-blood ([6]; 30 minutes post-injection): 10.10
Left ventricle-to-blood ([6]; 30 minutes post-injection): 12.48
Right ventricle-to-blood ([6]; 30 minutes post-injection): 10.05
SMILES: CCCCCCCCCCCCCCC(C)C[14C](=O)O (racemic) [R,S racemic mixture, 1-[^14C]-3(R,S)-methylheptadecanoic acid]

— patent US8871179B2, “Method for monitoring blood flow and metabolic uptake in tissue with radiolabeled alkanoic acid” (The General Hospital Corporation, priority 2003, dated 2014)
